Here are results for 1 compound from ChEMBL document CHEMBL1156599, “Nordihydroguaiaretic acid autoxidation produces a schisandrin-like dibenzocyclooctadiene lignan” (J Nat Prod, 2008).

Structures are written as SMILES.

The data set in a line: Stability assessed as half life at pH 7.4. The data set is classed as physicochemical. The following applies: buffer.

For `CC(Cc1ccc(O)c(O)c1)C(C)Cc1ccc(O)c(O)c1` (stereo unspecified) [NORDIHYDROGUAIARETIC ACID], the half-life (in general, the time needed for the level to fall by half in the phase considered) was 3 h.
